Data set [1] addresses T1, murine IRE1α (Mus musculus, UniProt Q9EQY0, N772Y). Nature of the data set: biochemical. The conditions noted are these: IC50 IRE1α RNase activity, naphthol analogue series, average n=4 +/- s.d.
Data set [2] deals with rheumatoid arthritis model. To be noted: cited from earlier work.
For another data set, the system named is myeloma tumor. To be noted: cited from earlier work.
The target in data set [3] is murine IRE1α auto-kinase activity (Mus musculus, UniProt Q9EQY0, N772Y). Nature of the data set: Auto-phosphorylation kinase assay with P32-γ-ATP. It is filed as biochemical. The conditions noted are these: read-out: IC50 (avg) auto-kinase activity of murine IRE1α; 10 minute time point; n=2.
Data set [4] deals with T1, murine IRE1α. Briefly: Oligomerization status by velocity analytical ultracentrifugation. To be noted: ADP 500 μM, JAK inhibitor I 30 μM.
Data set [5] deals with T2, yeast IRE1 (Saccharomyces cerevisiae, UniProt P32361, DEL869-892).
T2 sequence (P32361 with tags, fused parts or gaps DEL869-892): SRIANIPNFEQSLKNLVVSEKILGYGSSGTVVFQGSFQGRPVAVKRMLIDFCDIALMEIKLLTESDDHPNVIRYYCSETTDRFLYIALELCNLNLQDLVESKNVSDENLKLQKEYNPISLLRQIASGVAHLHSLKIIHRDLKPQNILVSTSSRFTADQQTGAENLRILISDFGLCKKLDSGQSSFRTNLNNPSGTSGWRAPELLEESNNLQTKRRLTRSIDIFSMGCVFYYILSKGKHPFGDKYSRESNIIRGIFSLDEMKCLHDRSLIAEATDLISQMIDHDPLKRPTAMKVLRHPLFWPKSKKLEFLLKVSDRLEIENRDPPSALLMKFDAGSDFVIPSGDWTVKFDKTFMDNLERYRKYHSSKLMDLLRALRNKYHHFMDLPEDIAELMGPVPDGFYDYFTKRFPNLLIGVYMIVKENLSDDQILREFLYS
To be noted: cited from earlier work.

The target in data set [6] is T2, yeast IRE1. Nature of the data set: IRE1 RNase activity, real time fluorescence readout assay. The conditions noted are these: RNase inhibition. It is filed as biochemical.
For data set [7], the target named is IRE1α auto-kinase activity (Mus musculus, UniProt Q9EQY0, N772Y). Briefly: IRE1α auto-kinase. The class given is biochemical, murine.
Data set [8] concerns XBP1 mRNA splicing (IRE1α). Nature of the data set: XBP1 mRNA splicing in RPMI 8226 plasmacytoma cells. The class given is cell-based, human.
In another data set the test system is CD59 mRNA (RIDD target). Nature of the data set: CD59. It is filed as cell-based, human. The conditions noted are these: 10 μM.
The target of another data set is murine IRE1α Phe889Ala (Mus musculus, UniProt Q9EQY0, F889A/N772Y). Nature of the data set: Direct binding by micro-scale thermophoresis. To be noted: Kd (avg), average.
The target in the next data set is murine IRE1α Tyr892Ala (Mus musculus, UniProt Q9EQY0, N772Y/Y892A). Briefly: Direct binding by micro-scale thermophoresis. The conditions noted are these: Kd (avg), average.
In a further data set the target is murine IRE1α Asn906Leu (Mus musculus, UniProt Q9EQY0, N772Y/N906L). Briefly: Direct binding by micro-scale thermophoresis. To be noted: Kd (avg), average.
The next data set has as its target murine IRE1α His910Ala (Mus musculus, UniProt Q9EQY0, H910A/N772Y). Briefly: Direct binding by micro-scale thermophoresis. To be noted: Kd (avg), average.
For data set [9], the target named is T3, murine IRE1α Lys907Ala (Mus musculus, UniProt Q9EQY0, K907A/N772Y). Briefly: Direct binding by micro-scale thermophoresis.
In data set [10] the target is T3, murine IRE1α Lys907Ala. Nature of the data set: Gel based RNase cleavage assay with dual-hairpin RNA substrate. The class given is biochemical. To be noted: 100 μM IRE1α, 60 μM dual hairpin substrate.

Data on six compounds can be found in paper PMC4486471 (Nature communications, 2014).

Usually IC50 stands for the concentration that gives 50% inhibition. For orientation: EC50 means the midpoint of the concentration-response curve. What is called Kd is a measure of binding affinity in units of concentration. A higher Kd goes with lower affinity.

T1 sequence (Q9EQY0 499-977 N772Y): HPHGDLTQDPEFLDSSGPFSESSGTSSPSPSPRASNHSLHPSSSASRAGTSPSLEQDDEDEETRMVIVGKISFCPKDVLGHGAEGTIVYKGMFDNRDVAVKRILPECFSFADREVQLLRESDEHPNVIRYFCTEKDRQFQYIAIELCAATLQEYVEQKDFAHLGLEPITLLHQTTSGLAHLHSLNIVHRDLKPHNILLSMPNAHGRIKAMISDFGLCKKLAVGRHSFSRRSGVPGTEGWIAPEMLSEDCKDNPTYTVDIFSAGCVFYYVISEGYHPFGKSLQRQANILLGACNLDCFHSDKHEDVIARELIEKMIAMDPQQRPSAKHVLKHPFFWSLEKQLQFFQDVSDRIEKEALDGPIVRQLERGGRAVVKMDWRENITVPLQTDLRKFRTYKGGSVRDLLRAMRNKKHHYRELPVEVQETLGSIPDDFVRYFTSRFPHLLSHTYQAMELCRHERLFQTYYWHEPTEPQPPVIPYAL
T3 sequence (Q9EQY0 499-977 N772Y/K907A): as the sequence (Q9EQY0 499-977 N772Y) above, with K409A counted along it
Chain of murine IRE1α Phe889Ala (Q9EQY0 499-977 N772Y/F889A): as the sequence (Q9EQY0 499-977 N772Y) above, with F391A counted along it
Chain of murine IRE1α Asn906Leu (Q9EQY0 499-977 N772Y/N906L): as the sequence (Q9EQY0 499-977 N772Y) above, with N408L counted along it
Chain of murine IRE1α His910Ala (Q9EQY0 499-977 N772Y/H910A): as the sequence (Q9EQY0 499-977 N772Y) above, with H412A counted along it
Chain of murine IRE1α auto-kinase activity (Q9EQY0 499-977 N772Y): as the sequence (Q9EQY0 499-977 N772Y) above
Chain of IRE1α auto-kinase activity (Q9EQY0 499-977 N772Y): as above
Chain of murine IRE1α Tyr892Ala (Q9EQY0 499-977 N772Y/Y892A): as the sequence (Q9EQY0 499-977 N772Y) above, with Y394A counted along it

The compound `CN1CCN(C(=O)c2ccc(-c3ccc4ccc(O)c(C=O)c4c3)cc2)CC1` [MKC4027, 2-Hydroxy-7-[4-(4-methyl-piperazine-1-carbonyl)-phenyl]-naphthalene-1-carbaldehyde] had a 50% inhibitory concentration (IC50) against murine IRE1α [1] of 5.7 µM.
`Cc1cc(=O)oc2c(C=O)c(O)ccc12` [4μ8C]: the “XBP1s, inflammatory cytokines and inflammation” value in data set [2] is listed as “effective in suppressing”.
At murine IRE1α [1], `O=Cc1c(O)ccc2ccc(Br)cc12` [MKC3987, 7-Bromo-2-hydroxy-naphthalene-1-carbaldehyde] displayed a half-inhibitory concentration (IC50) of 0.39 µM.
As to `CN1CCN(C(=O)c2ccc(-c3ccc4c(C=O)c(O)ccc4c3)s2)CC1` [MKC3946, 2-Hydroxy-6-[5-(4-methyl-piperazine-1-carbonyl)-thiophen-2-yl]-naphthalene-1-carbaldehyde], in the data set with myeloma tumor, the Myeloma tumor growth entry is “reduced myeloma tumor growth”; the “Splicing of XBP1 mRNA in tissues and tumors” value is “inhibited the splicing of XBP1 mRNA in tissues and tumors”; the Tolerability in vivo result is “readily tolerated with high exposure”.
As for JAK inhibitor I, the IC50 in data set [3] is 1100 nM. Further, on murine IRE1α [4], the “Effect on concentration dependent oligomerization of IRE1α” value is “enhanced”. The “Effect on dimerization/oligomerization of yeast IRE1 and its RNase activity” value on yeast IRE1 [5] is recorded as “promoted”.
`COCCOCCc1c(C)c2cc(OC)c(O)c(C=O)c2oc1=O` [MKC9989, 7-Hydroxy-6-methoxy-3-(2-(2-methoxyethoxy)ethyl)-4-methyl-2-oxo-2H-chromene-8-carbaldehyde]: the “Resistance of yeast IRE1 relative to IRE1α” value at yeast IRE1 [6] is ~ 100 fold. For the same compound, the IC50 in data set [7] is > 10 µM. For the same compound, the “Inhibition of basal and thapsigargin induced splicing of XBP1 mRNA” value in data set [8] (10 μM compound, 1 μM thapsigargin, RPMI 8226) is “completely inhibited”. Also, the EC50 in data set [8] (Homo sapiens, RPMI-8226, read-out: EC50 (avg) XBP1 splicing) turned out to be 330 nM. For the same compound, the “CD59 mRNA level” value in the data set with CD59 mRNA (RIDD target) (administered 2 hour post treatment with thapsigargin) is “moderately stabilized”; in the data set on CD59 mRNA (RIDD target) (co-administered with thapsigargin relative to thapsigargin alone), “markedly stabilized”; with CD59 mRNA (RIDD target) (non-stressed cells), “modestly increased”. The Kd at murine IRE1α Phe889Ala was found to be 10.9 µM; on murine IRE1α Tyr892Ala, 10 µM; on murine IRE1α Asn906Leu, 8.9 µM; at murine IRE1α His910Ala, 5.3 µM. The “Binding to IRE1α Lys907Ala” value on murine IRE1α Lys907Ala [9] is on record as “abolished detectable binding”. On murine IRE1α Lys907Ala [10], the “Sensitivity of RNase activity to inhibitor” value is recorded as “insensitive”.
